Data set [1] deals with adrenergic alpha 2C (h) (Homo sapiens, UniProt P18825). The experiment in a line: biochemical. It counts as binding.
For data set [2], the target named is cannabinoid CB2 (h) (Homo sapiens, UniProt P34972). The experiment in a line: Bioprint radioligand binding assay.
For data set [3], the target named is dopamine D1 (h) (Homo sapiens, UniProt P21728). Nature of the data set: biochemical. It counts as binding.
The target in data set [4] is dopamine D3 (h) (Homo sapiens, UniProt P35462). The experiment in a line: biochemical. It counts as binding.
Chain of dopamine D3 (h) (P35462 whole entry): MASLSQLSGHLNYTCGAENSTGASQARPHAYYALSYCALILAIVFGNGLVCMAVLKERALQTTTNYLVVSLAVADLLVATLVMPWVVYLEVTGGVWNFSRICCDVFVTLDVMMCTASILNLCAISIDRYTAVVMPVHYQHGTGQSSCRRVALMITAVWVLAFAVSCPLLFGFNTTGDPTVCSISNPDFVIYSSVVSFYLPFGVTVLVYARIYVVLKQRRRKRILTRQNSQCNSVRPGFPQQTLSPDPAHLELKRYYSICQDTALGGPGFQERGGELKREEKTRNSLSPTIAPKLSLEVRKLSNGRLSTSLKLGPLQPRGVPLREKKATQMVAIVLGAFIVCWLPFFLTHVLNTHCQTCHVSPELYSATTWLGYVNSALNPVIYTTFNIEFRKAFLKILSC
In data set [5] the target is histamine H1 (h) (Homo sapiens, UniProt P35367). Nature of the data set: Bioprint radioligand binding assay.
Chain of histamine H1 (h) (P35367 whole entry): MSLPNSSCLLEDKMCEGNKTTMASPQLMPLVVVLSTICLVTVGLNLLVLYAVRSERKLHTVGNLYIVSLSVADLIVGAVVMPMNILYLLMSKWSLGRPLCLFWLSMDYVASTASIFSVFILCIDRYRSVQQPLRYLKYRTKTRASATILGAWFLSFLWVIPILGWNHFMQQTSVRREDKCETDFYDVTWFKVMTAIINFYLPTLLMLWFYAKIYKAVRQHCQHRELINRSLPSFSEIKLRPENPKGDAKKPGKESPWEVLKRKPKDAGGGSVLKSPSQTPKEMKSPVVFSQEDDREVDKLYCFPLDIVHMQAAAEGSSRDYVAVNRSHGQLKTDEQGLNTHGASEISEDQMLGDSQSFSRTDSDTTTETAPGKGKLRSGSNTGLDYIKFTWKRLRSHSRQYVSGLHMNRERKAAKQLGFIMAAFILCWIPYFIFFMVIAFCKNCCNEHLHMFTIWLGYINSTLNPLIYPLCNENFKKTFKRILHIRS
The target of data set [6] is melatonin MT1 (ML1A) (h) (Homo sapiens, UniProt P48039). Nature of the data set: Bioprint radioligand binding assay.
Chain of melatonin MT1 (ML1A) (h) (P48039 whole entry): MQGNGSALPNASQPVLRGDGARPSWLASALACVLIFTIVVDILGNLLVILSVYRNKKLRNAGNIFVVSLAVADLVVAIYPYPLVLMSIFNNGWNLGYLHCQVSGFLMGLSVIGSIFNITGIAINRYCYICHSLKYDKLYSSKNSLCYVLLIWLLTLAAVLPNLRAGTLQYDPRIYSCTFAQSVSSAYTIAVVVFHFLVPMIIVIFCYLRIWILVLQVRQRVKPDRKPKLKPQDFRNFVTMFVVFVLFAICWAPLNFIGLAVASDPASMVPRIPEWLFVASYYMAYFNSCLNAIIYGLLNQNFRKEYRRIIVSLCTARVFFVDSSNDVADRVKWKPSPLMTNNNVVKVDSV
The target of data set [7] is norepinephrine transporter (h) (Homo sapiens, UniProt P23975). The experiment in a line: biochemical. The format is binding.
Chain of norepinephrine transporter (h) (P23975 whole entry): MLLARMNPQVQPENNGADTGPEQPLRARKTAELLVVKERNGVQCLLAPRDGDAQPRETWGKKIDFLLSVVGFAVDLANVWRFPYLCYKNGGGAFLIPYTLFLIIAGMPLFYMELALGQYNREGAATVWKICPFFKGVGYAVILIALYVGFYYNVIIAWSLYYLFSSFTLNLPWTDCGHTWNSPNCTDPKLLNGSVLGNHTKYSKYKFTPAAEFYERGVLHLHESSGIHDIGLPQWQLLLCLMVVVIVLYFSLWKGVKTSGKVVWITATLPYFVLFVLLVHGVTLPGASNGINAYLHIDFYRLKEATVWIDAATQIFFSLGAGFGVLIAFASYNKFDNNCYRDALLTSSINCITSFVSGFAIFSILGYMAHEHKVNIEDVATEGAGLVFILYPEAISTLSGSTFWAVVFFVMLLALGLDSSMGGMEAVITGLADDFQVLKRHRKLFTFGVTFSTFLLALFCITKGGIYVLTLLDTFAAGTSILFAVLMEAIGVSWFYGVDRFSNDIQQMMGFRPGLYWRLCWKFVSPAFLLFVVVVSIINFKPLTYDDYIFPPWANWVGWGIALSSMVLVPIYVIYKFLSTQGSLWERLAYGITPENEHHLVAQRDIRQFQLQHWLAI
In data set [8] the test system is 4 normal cell types, CCD 841 CoN, HMEC, HREC and Wi38. Nature of the data set: OncoPanel normal cell proliferation assay (3-day), panel. The format is cell-based. The settings on record: all 4 cell lines.
Data set [9] concerns CCD 841 CoN. The experiment in a line: OncoPanel normal cell proliferation assay (3-day). It counts as cell-based. The settings on record: Homo sapiens, 72 h, colon epithelial, 3-day incubation.
Data set [10] in a line: Keratinocyte cell viability, IL-8 assay (assay number 1244). It counts as cell-based, human. The settings on record: human, primary human keratinocytes induced with IL-17A and TNFα; read-out: Inhibition of cell viability, Max Effect.
In data set [11] the test system is primary human keratinocytes. Described as above. It counts as cell-based. The settings on record: Homo sapiens, Keratinocyte; read-out: Inhibition of cell viability, Rel EC50.
Data set [12] deals with IL-17A secretion from human PBMC stimulated with antiCD3/antiCD28-coated beads. Nature of the data set: PBMC IL-17 assay (assay number 1321). It counts as cell-based.
Data set [13] deals with human pancreatic carcinoma MIA PaCa-2. The settings on record: for % T/C / % TGI / Tumor Volume, Mean: 100 mg/kg QWK x 3 IP.
Data set [14] deals with DNMT3B/DNMT3L (h) (Homo sapiens, UniProt Q9UBC3). As to conditions: read-out: Reference IC50; cited from earlier work.
For data set [15], the target named is hDNMT3a (Homo sapiens, UniProt Q9Y6K1). The settings on record: read-out: Reference: IC50; cited from earlier work.
Chain of hDNMT3a (Q9Y6K1 whole entry, looked up): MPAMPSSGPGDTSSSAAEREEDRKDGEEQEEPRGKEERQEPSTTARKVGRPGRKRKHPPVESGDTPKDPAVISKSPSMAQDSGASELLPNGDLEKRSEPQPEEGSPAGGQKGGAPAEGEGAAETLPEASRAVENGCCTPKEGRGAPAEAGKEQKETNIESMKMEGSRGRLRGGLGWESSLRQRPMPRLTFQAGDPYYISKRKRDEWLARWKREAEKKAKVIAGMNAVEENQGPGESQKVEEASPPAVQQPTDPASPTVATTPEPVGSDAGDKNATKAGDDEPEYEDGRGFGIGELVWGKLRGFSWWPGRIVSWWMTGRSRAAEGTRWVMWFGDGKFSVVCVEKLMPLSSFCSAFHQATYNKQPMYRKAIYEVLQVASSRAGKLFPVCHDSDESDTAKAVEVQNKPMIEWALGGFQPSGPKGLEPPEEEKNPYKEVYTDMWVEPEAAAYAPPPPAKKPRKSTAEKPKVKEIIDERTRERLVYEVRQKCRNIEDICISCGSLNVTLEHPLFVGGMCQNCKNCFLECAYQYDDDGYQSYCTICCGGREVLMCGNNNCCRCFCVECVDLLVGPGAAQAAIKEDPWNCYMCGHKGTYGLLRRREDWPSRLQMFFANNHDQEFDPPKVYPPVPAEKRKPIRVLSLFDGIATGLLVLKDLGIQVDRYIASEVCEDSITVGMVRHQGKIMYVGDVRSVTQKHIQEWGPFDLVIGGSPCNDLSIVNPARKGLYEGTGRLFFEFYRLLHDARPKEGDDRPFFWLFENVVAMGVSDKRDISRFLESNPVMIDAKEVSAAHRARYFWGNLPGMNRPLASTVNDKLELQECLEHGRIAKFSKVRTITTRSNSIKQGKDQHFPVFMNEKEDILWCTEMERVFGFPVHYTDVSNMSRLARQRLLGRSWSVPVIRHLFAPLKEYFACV
Data set [16] has as its system MLL2(h) complex. As to conditions: read-out: Reference: (IC50 not given); cited from earlier work.
Data set [17] has as its target MLL3(h) complex (Homo sapiens, UniProt Q8NEZ4). As to conditions: read-out: Reference: (IC50 not given); cited from earlier work.
In data set [18] the target is NSD1 (h) (Homo sapiens, UniProt Q96L73). As to conditions: read-out: Reference: (IC50 not given); cited from earlier work.
Data set [19] addresses SUV4-20H2 (h) (Homo sapiens, UniProt Q86Y97). As to conditions: read-out: Reference: (IC50 not given); cited from earlier work.
[20] abbreviates: read-out: % inhibition of control specific binding.

Read-outs that look alike come from different tables or passages of the source.

Chain of adrenergic alpha 2C (h) (P18825 whole entry): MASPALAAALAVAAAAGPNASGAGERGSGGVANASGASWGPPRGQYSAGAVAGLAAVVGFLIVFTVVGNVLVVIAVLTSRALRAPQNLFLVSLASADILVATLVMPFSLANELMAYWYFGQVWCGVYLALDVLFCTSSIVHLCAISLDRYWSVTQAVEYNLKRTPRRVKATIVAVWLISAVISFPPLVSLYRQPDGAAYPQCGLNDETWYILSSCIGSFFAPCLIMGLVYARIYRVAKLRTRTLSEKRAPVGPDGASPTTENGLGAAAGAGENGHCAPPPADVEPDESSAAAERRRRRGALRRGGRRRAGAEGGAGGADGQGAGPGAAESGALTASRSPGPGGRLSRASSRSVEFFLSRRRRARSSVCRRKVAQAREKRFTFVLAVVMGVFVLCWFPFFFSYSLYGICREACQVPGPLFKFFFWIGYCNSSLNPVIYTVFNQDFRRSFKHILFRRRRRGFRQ
Chain of cannabinoid CB2 (h) (P34972 whole entry): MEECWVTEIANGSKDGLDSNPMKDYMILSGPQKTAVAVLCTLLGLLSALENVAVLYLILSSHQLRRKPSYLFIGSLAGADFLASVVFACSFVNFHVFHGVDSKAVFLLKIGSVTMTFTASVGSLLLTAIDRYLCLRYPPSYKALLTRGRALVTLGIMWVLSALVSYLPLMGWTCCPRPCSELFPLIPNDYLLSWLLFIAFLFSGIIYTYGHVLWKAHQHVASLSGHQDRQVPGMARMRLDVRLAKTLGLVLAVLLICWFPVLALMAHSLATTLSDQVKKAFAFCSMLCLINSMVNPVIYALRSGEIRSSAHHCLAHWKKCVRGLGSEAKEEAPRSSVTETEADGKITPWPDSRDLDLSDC
Chain of dopamine D1 (h) (P21728 whole entry): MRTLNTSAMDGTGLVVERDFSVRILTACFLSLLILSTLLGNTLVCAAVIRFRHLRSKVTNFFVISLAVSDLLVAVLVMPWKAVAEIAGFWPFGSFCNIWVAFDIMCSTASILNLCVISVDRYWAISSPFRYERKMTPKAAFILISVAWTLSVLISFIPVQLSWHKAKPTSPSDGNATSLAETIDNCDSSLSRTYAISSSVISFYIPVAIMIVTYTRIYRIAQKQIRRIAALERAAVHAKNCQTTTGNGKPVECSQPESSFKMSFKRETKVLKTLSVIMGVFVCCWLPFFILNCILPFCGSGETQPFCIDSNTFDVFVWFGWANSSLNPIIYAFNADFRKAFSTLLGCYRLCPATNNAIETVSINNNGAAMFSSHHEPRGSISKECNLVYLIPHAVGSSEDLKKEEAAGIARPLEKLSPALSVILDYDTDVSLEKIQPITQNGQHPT
Chain of SUV4-20H2 (h) (Q86Y97 whole entry): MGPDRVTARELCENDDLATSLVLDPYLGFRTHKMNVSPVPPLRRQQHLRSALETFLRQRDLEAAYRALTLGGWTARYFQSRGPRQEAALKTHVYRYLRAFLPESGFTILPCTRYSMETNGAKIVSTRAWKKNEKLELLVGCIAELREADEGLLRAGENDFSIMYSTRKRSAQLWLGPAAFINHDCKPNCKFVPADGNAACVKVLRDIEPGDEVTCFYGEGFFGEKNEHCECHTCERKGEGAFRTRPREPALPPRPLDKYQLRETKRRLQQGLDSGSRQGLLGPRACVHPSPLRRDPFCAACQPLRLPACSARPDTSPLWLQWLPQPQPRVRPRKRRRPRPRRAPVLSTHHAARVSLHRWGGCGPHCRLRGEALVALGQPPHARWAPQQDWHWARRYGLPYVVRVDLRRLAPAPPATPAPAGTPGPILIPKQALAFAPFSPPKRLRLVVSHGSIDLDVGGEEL

With `CC(C)=CCC[C@H](CO)[C@@H]1CC[C@@H](C)c2c1cc(C)c(O)c2O` [Compound 1, 7,8,18-trihydroxyserrulat-14-ene], the inhibition – broadly, the change of the read-out against control, counted positive when it falls – at 10 µM in data set [1] ([…] alpha 2C (h) (antagonist radioligand), read-out: % Inhibition of Control Specific Binding) amounted to 92%; in [1] (setting [20]) it was 92%; in [2] (CANNABINOID CB2 (h) (agonist radioligand), read-out: % Inhibition of Control Specific Binding), 71%; in data set [2] (setting [20]), 71%; in data set [3] (DOPAMINE D1 (h) (antagonist radioligand), read-out: % Inhibition of Control Specific Binding), 67%; in data set [3] (setting [20]), 67%. Further, the inhibition at 10 µM in data set [4] (DOPAMINE D3 (h) (antagonist radioligand), read-out: % Inhibition of Control Specific Binding) was 85%; in data set [4] (setting [20]), 85%; in data set [5] (HISTAMINE H1 (h) (antagonist radioligand), read-out: % Inhibition of Control Specific Binding), 64%; in [5] (setting [20]), 64%; in [6] (10 μM, read-out: % inhibition of control specific binding), 91%; in [6] (read-out: % Inhibition of Control Specific Binding) it was 91%. The inhibition at 10 µM in [7] (norepinephrine transporter (h) (antagonist radioligand), read-out: % Inhibition of Control Specific Binding) came out at 76%; in data set [7] (setting [20]), 76%. Moreover, in [8], the “toxicity towards normal cells” value is “relatively low toxicity”. Besides, the concentration giving a half-maximal response (EC50) (as a rule, the concentration at which the effect is half-maximal) in data set [9] (read-out: Cell Count EC50) was found to be 4.86 µM; in data set [11] it was 0.246 µM; in [12] (read-out: Inhibition of IL-17A release, Rel EC50) it was 0.32 µM. For the same compound, in data set [9] (read-out: Cell Count GI50), the GI50 (as a rule, the concentration at which growth is held to half of that of the control) was found to be 5.27 µM. In [9] (read-out: Cell Count IC50), the IC50 (commonly the point on the concentration scale where inhibition reaches its midpoint) was determined as 14.3 µM. Moreover, the cytotoxicity in data set [10] worked out at 101%. In addition, the Emax in data set [12] (read-out: Inhibition of IL-17A release, Max Effect) is 100%. In addition, the “% T/C” value in data set [13] (Day 1) stood at 100%; in data set [13] (Day 4), 96%; in data set [13] (Day 8), 101%; in data set [13] (Day 11), 107%; in [13] (Day 15), 92%. For the same compound, the “% TGI” value in data set [13] (Day 1) was 0%; in [13] (Day 4), 4%; in data set [13] (Day 8), −1%; in data set [13] (Day 11), −7%; in data set [13] (Day 15) it was 8%. Also, the “Tumor Volume, Mean” value worked out at 90 mm3 in data set [13] (Day 1); 90 mm3 in data set [13] (Day 4); 133 mm3 in [13] (Day 8); 211 mm3 in [13] (Day 11); 345 mm3 in data set [13] (Day 15). Besides, the anti-cancer activity entry in data set [13] (in combination with gemcitabine) was “effective in combination with gemcitabine”.
As to `Nc1ncnc2c1ncn2[C@@H]1O[C@H](CSCC[C@H](N)C(=O)O)[C@@H](O)[C@H]1O` [SAH], the IC50 is 0.045 µM in data set [14]; 0.052 µM in [15]; 0.97 µM in [16]; 0.97 µM in data set [17]; 0.97 µM in data set [18]; 24 µM in [19].

Values taken from patent publication US11331299B2, “Medicinal use of serrulatane diterpenes” (The University of Sydney, priority 2016, dated 2022).
